{
  "source": "patent US11938121B2",
  "about": "“Treatment of infections and biofilm formation using a cellulose synthase inhibitor” (Purdue Research Foundation, priority 2020, dated 2024)",
  "key": {"[1]": {"system": "PIN2-GFP, GFP-PIP2a, GFP-HDEL, VHA-a1-GFP, YFP-Got1p", "experiment": "Live-cell imaging of fluorescence-tagged marker proteins", "format": "cell-based, Arabidopsis thaliana", "details": "6 μM, 2 h", "description": "To test the effect of ES20-1 on cellular localization of endomembrane marker proteins, transgenic plants expressing different fluorescence-tagged proteins were grown on ½-strength MS agar plates for 5 d under continuous light. The seedlings were incubated in ½-strength MS liquid media supplemented with 6 μM ES20-1 for 2 h. The images were collected by Zeiss 710 laser scanning confocal microscope equipped with 40×/1.2 NA water objective. For images of GFP-tagged proteins, the 488-nm laser line was used as an excitation source and emission light at 493-598 nm was collected. For images of YFP-tagged proteins, the 514-nm laser line was used as an excitation source and the emission light at 519-621 nm was collected."}, "[2]": {"biological_target": "T1, GFP-CESA6c (central cytosolic domain of AtCESA6) (Arabidopsis thaliana, UniProt Q94JQ6)", "T1 construct": "made in house; host or cells: E. coli", "T1 sequence (Q94JQ6 322-868)": "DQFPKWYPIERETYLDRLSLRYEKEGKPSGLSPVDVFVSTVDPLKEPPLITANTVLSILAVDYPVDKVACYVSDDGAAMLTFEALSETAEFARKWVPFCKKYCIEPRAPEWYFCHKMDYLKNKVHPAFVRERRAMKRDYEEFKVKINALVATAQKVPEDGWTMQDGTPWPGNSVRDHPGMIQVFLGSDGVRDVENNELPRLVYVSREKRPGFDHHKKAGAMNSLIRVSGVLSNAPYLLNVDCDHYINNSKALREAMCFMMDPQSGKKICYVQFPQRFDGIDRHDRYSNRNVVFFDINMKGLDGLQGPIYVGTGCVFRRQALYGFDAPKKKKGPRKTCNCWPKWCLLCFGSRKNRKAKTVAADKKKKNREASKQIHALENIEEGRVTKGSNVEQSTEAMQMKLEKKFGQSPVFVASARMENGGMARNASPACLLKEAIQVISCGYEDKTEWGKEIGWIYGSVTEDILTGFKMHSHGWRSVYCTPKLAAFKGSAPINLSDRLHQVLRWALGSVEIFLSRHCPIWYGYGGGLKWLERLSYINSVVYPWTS", "experiment": "MST assay with GFP-CESA6c", "format": "binding", "from_the_text": "To obtain the central cytosolic domain of AtCESA6 for the MST assay, we inserted the GFP coding sequence into the SacI and PstI restriction enzyme sites of the pRSF-Duet-1 vector (Huang et al., 2020). The GFP coding sequence was amplified from the pUBN-GFP-DEST vector. The sequence encoding the central cytosolic domain of CESA6 (CESA6c) was amplified from Col-0 cDNA and fused with GFP at the C-terminus. CESA6c construct was used as a template for creating CESA6c^P595S construct by site-directed mutagenesis. Protein purification was performed as previously described (Huang et al., 2020).\nMST assays were carried out using a Monolith NT.115 (NanoTemper) machine at the Chemical Genomics Facility at Purdue University. […] The ES20-1 was dissolved in DMSO, and the final concentration of DMSO was 5% (vol/vol). MST standard capillaries were used to load the samples into the MST instrument. Triplicate reactions were performed for each test. The MST data were processed using MO. Affinity Analysis Version 2.3 software."}},
  "data": [
    {"smiles": "Cc1ccccc1C(=O)NNC(=S)NC(=O)c1ccccc1", "note": "[ES20-1]", "values": [
      {"measurement": "cellular localization of PIN2-GFP", "setting": "[1]", "value": "not significantly affected"},
      {"measurement": "cellular localization of organelle marker proteins GFP-PIP2a, GFP-HDEL, VHA-a1-GFP, YFP-Got1p", "setting": "[1]", "value": "are not affected"},
      {"measurement": "interaction with CESA6c", "setting": "[2]; 100 nM GFP-CESA6c", "value": "interacted"},
      {"measurement": "relative binding affinity to CESA6c", "setting": "[2]; MST", "value": "may have a higher binding affinity to CESA6c than ES20"}
    ]}
  ]
}
